Source: the kinase profiling compilation of Christmann-Franck et al. (2016)

Key:
Assay in all cases: radiometric filter-binding kinase assay
[1] = system: AKT1 (human), P31749 [S473D]; settings: ATP 5 µM
PAK4 (human) = PAK4 (human) (UniProt O96013); settings: ATP 5 µM
CDK2 CCNA2 (human) = CDK2 CCNA2 (human) (UniProt P24941+P20248); settings: compound 1.0 µM; ATP 20 µM
[2] = system: RPS6KB1 (human), P23443 [T412E]; settings: ATP 20 µM
IKBKB (human) = IKBKB (human) (UniProt O14920); settings: ATP 5 µM
MKNK1 (human) = MKNK1 (human) (UniProt Q9BUB5); settings: ATP 50 µM
PRKCA (human) = PRKCA (human) (UniProt P17252); settings: ATP 20 µM
DYRK3 (human) = DYRK3 (human) (UniProt O43781); settings: ATP 5 µM
PDPK1 (human) = PDPK1 (human) (UniProt O15530)
Chain of PDPK1 (human) (O15530 whole entry, looked up): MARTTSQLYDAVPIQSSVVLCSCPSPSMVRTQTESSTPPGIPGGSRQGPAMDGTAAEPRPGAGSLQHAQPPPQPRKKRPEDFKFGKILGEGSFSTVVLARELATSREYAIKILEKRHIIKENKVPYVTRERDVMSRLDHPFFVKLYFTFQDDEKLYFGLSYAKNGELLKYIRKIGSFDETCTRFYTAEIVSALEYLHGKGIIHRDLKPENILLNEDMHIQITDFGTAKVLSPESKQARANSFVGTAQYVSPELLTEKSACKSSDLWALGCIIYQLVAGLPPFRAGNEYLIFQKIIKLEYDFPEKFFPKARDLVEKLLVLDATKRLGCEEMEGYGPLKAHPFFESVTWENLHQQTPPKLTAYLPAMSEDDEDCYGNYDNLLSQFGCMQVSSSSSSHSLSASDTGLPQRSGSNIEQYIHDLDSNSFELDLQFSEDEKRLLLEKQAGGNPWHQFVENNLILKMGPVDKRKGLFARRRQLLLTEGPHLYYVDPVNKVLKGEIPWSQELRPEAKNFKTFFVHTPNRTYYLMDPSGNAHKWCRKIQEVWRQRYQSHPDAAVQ

PAK7 (human) = PAK7 (human) (UniProt Q9P286); settings: ATP 20 µM
MAPKAPK5 (human) = MAPKAPK5 (human) (UniProt Q8IW41); settings: ATP 20 µM
NEK7 (human) = NEK7 (human) (UniProt Q8TDX7); settings: ATP 20 µM
CHEK2 (human) = CHEK2 (human) (UniProt O96017); settings: ATP 20 µM
HIPK2 (human) = HIPK2 (human) (UniProt Q9H2X6); settings: ATP 5 µM
Chain of HIPK2 (human) (Q9H2X6 whole entry, looked up): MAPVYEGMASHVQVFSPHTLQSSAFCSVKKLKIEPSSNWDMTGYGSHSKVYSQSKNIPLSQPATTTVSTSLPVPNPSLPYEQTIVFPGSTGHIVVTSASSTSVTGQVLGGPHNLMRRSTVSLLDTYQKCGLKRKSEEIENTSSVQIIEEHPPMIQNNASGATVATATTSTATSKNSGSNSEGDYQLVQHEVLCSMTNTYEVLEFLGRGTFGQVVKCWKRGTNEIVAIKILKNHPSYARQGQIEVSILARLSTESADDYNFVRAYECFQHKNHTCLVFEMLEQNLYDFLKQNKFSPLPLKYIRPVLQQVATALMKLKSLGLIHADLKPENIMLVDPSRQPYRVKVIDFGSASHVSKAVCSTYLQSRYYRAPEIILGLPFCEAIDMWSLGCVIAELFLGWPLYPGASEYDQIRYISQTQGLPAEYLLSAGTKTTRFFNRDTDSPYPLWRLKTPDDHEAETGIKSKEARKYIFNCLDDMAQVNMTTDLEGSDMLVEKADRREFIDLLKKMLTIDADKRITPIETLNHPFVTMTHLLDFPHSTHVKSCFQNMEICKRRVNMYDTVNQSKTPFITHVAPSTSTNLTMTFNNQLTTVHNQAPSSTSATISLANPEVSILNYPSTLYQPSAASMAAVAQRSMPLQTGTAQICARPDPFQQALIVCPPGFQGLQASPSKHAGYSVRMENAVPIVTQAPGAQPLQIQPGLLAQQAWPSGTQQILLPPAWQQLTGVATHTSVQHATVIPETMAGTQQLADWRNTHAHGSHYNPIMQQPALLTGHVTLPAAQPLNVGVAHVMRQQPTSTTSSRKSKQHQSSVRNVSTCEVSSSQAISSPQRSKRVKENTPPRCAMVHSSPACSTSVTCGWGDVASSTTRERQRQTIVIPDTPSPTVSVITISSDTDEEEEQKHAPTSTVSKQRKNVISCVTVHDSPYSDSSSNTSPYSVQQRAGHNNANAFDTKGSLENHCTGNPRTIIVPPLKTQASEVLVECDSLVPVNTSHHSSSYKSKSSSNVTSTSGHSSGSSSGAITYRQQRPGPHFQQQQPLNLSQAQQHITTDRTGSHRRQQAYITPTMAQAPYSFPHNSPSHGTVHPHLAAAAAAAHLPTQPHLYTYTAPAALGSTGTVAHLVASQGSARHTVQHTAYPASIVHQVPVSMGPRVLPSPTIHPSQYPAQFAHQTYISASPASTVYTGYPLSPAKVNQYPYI

PRKCG (human) = PRKCG (human) (UniProt P05129); settings: ATP 5 µM
MAPKAPK3 (human) = MAPKAPK3 (human) (UniProt Q16644); settings: ATP 20 µM
DYRK2 (human) = DYRK2 (human) (UniProt Q92630); settings: ATP 50 µM
CAMKK2 (human) = CAMKK2 (human) (UniProt Q96RR4); settings: ATP 20 µM
CAMKK1 (human) = CAMKK1 (human) (UniProt Q8N5S9); settings: ATP 20 µM
Chain of CAMKK1 (human) (Q8N5S9 whole entry, looked up): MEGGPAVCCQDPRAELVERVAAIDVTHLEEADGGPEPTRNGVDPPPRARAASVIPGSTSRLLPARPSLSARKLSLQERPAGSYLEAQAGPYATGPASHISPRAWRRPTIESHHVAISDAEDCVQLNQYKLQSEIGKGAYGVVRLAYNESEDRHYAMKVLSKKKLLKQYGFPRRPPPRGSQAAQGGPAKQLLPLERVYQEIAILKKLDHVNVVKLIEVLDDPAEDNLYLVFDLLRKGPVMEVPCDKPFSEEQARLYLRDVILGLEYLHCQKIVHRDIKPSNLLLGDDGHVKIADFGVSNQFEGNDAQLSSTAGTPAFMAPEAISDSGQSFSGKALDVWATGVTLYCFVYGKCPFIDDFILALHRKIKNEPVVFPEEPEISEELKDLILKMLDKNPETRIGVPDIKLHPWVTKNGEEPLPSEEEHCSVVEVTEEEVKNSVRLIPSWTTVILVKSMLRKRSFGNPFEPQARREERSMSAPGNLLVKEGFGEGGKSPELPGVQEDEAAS

[3] = target: PRKACA or PRKACB or PRKACG (human) (UniProt P22694+P22612+P17612); settings: ATP 20 µM
Chain of PRKACA or PRKACB or PRKACG (human) (P22612 whole entry, looked up, other chains not shown): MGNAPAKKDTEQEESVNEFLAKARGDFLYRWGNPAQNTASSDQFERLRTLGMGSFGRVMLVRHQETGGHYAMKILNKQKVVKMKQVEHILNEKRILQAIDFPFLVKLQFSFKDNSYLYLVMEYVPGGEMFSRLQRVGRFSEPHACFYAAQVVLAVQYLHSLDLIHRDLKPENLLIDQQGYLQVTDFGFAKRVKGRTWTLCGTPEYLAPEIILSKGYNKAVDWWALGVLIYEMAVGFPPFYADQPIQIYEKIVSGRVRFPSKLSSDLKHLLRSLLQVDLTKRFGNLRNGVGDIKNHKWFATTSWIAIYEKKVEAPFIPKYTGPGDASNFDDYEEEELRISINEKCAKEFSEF

AURKB (human) = AURKB (human) (UniProt Q96GD4); settings: ATP 20 µM
PIM3 (human) = PIM3 (human) (UniProt Q86V86); settings: ATP 20 µM
MAPK3 (human) = MAPK3 (human) (UniProt P27361); settings: ATP 5 µM
Chain of MAPK3 (human) (P27361 whole entry, looked up): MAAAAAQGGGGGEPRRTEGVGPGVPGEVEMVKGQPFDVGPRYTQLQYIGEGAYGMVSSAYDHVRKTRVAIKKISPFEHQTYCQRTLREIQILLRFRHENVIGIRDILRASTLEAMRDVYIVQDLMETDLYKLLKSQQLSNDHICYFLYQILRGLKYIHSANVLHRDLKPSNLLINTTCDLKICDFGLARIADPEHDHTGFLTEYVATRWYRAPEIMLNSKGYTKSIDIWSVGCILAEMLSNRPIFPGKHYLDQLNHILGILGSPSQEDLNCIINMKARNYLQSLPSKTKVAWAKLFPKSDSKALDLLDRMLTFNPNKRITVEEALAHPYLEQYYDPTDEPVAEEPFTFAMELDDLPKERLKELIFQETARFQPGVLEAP

CSK (human) = CSK (human) (UniProt P41240); settings: ATP 20 µM
MAP2K1 (human) = MAP2K1 (human) (UniProt Q02750); settings: ATP 5 µM
MAPK10 (human) = MAPK10 (human) (UniProt P53779); settings: ATP 50 µM
MELK (human) = MELK (human) (UniProt Q14680); settings: ATP 50 µM
Chain of MELK (human) (Q14680 whole entry, looked up): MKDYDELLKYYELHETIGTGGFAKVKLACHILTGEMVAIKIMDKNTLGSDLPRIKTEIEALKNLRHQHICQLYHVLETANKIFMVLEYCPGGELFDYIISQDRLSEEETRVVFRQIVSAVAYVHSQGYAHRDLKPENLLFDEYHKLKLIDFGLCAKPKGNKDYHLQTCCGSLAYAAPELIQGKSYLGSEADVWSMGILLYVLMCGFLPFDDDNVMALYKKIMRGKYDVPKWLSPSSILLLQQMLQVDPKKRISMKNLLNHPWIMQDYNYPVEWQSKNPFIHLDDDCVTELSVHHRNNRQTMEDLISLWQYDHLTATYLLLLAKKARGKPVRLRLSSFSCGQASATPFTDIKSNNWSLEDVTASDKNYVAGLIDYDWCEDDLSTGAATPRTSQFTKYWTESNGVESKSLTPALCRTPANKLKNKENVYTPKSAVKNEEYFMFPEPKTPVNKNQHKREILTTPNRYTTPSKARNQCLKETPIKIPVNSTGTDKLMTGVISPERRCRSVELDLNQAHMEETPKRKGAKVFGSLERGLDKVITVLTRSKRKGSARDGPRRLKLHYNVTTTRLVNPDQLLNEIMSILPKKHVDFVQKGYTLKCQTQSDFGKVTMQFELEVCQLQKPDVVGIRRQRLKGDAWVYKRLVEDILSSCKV

CaMK1 (human) = CaMK1 (human) (UniProt Q14012); settings: ATP 50 µM
GSK3B (human) = GSK3B (human) (UniProt P49841); settings: ATP 5 µM
ROCK2 (human) = ROCK2 (human) (UniProt O75116); settings: ATP 20 µM
[4] = system: SGK1 (human), O00141 [S422D]; settings: ATP 20 µM
PKN2 (human) = PKN2 (human) (UniProt Q16513); settings: compound 0.01 µM; ATP 5 µM
MAPK14 (human) = MAPK14 (human) (UniProt Q16539); settings: compound 0.01 µM; ATP 50 µM
[5] = target: CSNK2A1 or CSNK2A2 (human) (UniProt P19784+P68400); settings: compound 0.01 µM; ATP 5 µM
MAPK13 (human) = MAPK13 (human) (UniProt O15264); settings: compound 0.01 µM; ATP 5 µM
MARK3 (human) = MARK3 (human) (UniProt P27448); settings: compound 0.01 µM; ATP 5 µM
MAPK8 (human) = MAPK8 (human) (UniProt P45983); settings: compound 0.01 µM; ATP 20 µM

Chain of RPS6KB1 (human), P23443 [T412E] (P23443 whole entry T412E, looked up): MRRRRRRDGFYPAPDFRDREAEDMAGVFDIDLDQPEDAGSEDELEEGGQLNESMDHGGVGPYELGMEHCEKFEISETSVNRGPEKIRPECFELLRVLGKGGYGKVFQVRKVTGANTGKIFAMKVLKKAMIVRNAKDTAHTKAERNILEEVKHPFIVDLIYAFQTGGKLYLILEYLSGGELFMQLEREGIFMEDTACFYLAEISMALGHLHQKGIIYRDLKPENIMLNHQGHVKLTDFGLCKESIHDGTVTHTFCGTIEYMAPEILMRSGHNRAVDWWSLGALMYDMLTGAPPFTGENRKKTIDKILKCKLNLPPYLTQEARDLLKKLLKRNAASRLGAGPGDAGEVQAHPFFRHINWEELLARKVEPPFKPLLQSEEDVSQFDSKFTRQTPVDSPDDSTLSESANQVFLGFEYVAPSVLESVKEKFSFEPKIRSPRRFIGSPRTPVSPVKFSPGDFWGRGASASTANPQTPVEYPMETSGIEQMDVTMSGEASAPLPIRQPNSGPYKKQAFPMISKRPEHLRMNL

CC(C)(N)c1ccc(-c2nc3ccccc3nc2-c2ccccc2)cc1
residual activity ([1]; compound 10.0 µM): 64% | residual activity (PAK4 (human); compound 1.0 µM): 92% | residual activity (PAK4 (human); compound 10.0 µM): 49% | residual activity (CDK2 CCNA2 (human)): 97% | residual activity ([2]; compound 1.0 µM): 100% | residual activity ([2]; compound 10.0 µM): 72% | residual activity (IKBKB (human); compound 10.0 µM): 90% | residual activity (MKNK1 (human); compound 1.0 µM): 77% | residual activity (MKNK1 (human); compound 10.0 µM): 84% | residual activity (PRKCA (human); compound 1.0 µM): 108% | residual activity (PRKCA (human); compound 10.0 µM): 87% | residual activity (DYRK3 (human); compound 1.0 µM): 86% | residual activity (DYRK3 (human); compound 10.0 µM): 75% | residual activity (PDPK1 (human); compound 1.0 µM, ATP 20 µM): 96% | residual activity (PDPK1 (human); compound 1.0 µM, ATP 50 µM): 76% | residual activity (PDPK1 (human); compound 10.0 µM, ATP 20 µM): 95% | residual activity (PAK7 (human); compound 1.0 µM): 96% | residual activity (PAK7 (human); compound 10.0 µM): 61% | residual activity (MAPKAPK5 (human); compound 1.0 µM): 85% | residual activity (MAPKAPK5 (human); compound 10.0 µM): 79% | residual activity (NEK7 (human); compound 1.0 µM): 91% | residual activity (CHEK2 (human); compound 10.0 µM): 83% | residual activity (HIPK2 (human); compound 1.0 µM): 102% | residual activity (HIPK2 (human); compound 10.0 µM): 85% | residual activity (PRKCG (human); compound 1.0 µM): 105% | residual activity (PRKCG (human); compound 10.0 µM): 96% | residual activity (MAPKAPK3 (human); compound 1.0 µM): 86% | residual activity (MAPKAPK3 (human); compound 10.0 µM): 71% | residual activity (DYRK2 (human); compound 1.0 µM): 113% | residual activity (DYRK2 (human); compound 10.0 µM): 118% | residual activity (CAMKK2 (human); compound 10.0 µM): 108% | residual activity (CAMKK1 (human); compound 1.0 µM): 93% | residual activity (CAMKK1 (human); compound 10.0 µM): 62% | residual activity ([3]; compound 1.0 µM): 91% | residual activity ([3]; compound 10.0 µM): 77% | residual activity (AURKB (human); compound 1.0 µM): 82% | residual activity (AURKB (human); compound 10.0 µM): 60% | residual activity (PIM3 (human); compound 10.0 µM): 60% | residual activity (MAPK3 (human); compound 1.0 µM): 93% | residual activity (MAPK3 (human); compound 10.0 µM): 100% | residual activity (CSK (human); compound 1.0 µM): 87% | residual activity (MAP2K1 (human); compound 1.0 µM): 91% | residual activity (MAPK10 (human); compound 1.0 µM): 88% | residual activity (MAPK10 (human); compound 10.0 µM): 80% | residual activity (MELK (human); compound 1.0 µM): 80% | residual activity (MELK (human); compound 10.0 µM): 68% | residual activity (CaMK1 (human); compound 1.0 µM): 43% | residual activity (CaMK1 (human); compound 10.0 µM): 3% | residual activity (GSK3B (human); compound 1.0 µM): 89% | residual activity (ROCK2 (human); compound 10.0 µM): 92% | residual activity ([4]; compound 10.0 µM): 82%

CN[C@@H]1C[C@@H]2O[C@@](C)([C@@H]1OC)n1c3ccccc3c3c4c(c5c6ccccc6n2c5c31)C(=O)N[C@@H]4O
residual activity ([1]; compound 0.01 µM): 79% | residual activity (PAK4 (human); compound 0.01 µM): 33% | residual activity ([2]; compound 0.01 µM): 96% | residual activity (IKBKB (human); compound 0.01 µM): 86% | residual activity (MKNK1 (human); compound 0.01 µM): 85% | residual activity (PRKCA (human); compound 0.01 µM): 6% | residual activity (PKN2 (human)): 10% | residual activity (DYRK3 (human); compound 0.01 µM): 84% | residual activity (PDPK1 (human); compound 0.01 µM, ATP 20 µM): 2% | residual activity (PDPK1 (human); compound 0.01 µM, ATP 50 µM): 83% | residual activity (PAK7 (human); compound 0.01 µM): 36% | residual activity (MAPKAPK5 (human); compound 0.01 µM): 83% | residual activity (NEK7 (human); compound 0.01 µM): 99% | residual activity (CHEK2 (human); compound 0.01 µM): 96% | residual activity (HIPK2 (human); compound 0.01 µM): 109% | residual activity (PRKCG (human); compound 0.01 µM): 78% | residual activity (MAPKAPK3 (human); compound 0.01 µM): 107% | residual activity (DYRK2 (human); compound 0.01 µM): 92% | residual activity (MAPK14 (human)): 105% | residual activity (CAMKK2 (human); compound 0.01 µM): 21% | residual activity [5]: 92% | residual activity (CAMKK1 (human); compound 0.01 µM): 58% | residual activity ([3]; compound 0.01 µM): 63% | residual activity (AURKB (human); compound 0.01 µM): 59% | residual activity (PIM3 (human); compound 0.01 µM): 8% | residual activity (MAPK3 (human); compound 0.01 µM): 112% | residual activity (CSK (human); compound 0.01 µM): 80% | residual activity (MAP2K1 (human); compound 0.01 µM): 75% | residual activity (MAPK10 (human); compound 0.01 µM): 107% | residual activity (MELK (human); compound 0.01 µM): 53% | residual activity (CaMK1 (human); compound 0.01 µM): 86% | residual activity (GSK3B (human); compound 0.01 µM): 77% | residual activity (MAPK13 (human)): 94% | residual activity (MARK3 (human)): 6% | residual activity (ROCK2 (human); compound 0.01 µM): 86% | residual activity (MAPK8 (human)): 79% | residual activity ([4]; compound 0.01 µM): 83%
